Reference: patent US20140296143A1, “Angiotensin-(1-7) As A Chemoprevention Agent” (Wake Forest Innovations, priority 2008, published 2014)

Experiments:
[1] = system: chorioallantoic membrane (CAM); experiment: Chorioallantoic membrane (CAM) assay of neovascularization; format: in vivo, chicken
Method: Chicken eggs were incubated for four days in constant humidity at 37° C. […] The extent of neovascularization was quantified by counting branch points, as illustrated in FIG. 14 showing about a 50% reduction in branch points. No difference was found in the number of branch points between the two groups prior to treatment with Ang-(1-7).

AT2 angiotensin receptor = molecular target: T1, AT2 angiotensin receptor (Homo sapiens, UniProt P50052); conditions: cited from earlier work
T1 sequence (P50052 1-363): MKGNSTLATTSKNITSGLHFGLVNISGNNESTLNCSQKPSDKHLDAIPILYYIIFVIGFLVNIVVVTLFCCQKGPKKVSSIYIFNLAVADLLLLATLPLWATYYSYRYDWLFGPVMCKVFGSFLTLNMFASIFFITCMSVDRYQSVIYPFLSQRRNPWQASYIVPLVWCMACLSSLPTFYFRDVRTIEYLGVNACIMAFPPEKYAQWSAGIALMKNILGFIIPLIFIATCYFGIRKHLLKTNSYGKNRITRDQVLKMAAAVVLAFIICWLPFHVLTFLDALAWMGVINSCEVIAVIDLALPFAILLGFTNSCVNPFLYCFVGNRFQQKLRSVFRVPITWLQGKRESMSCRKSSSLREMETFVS

VEGF mRNA = VEGF mRNA in A549 cells by RT-PCR; format: cell-based, human; conditions: 100 nM, 2-4 hours
Method: RNA, isolated from cells or tissue, using the TRIzol reagent (GIBCO Invitrogen, Carlsbad, Calif.), was subjected to reverse transcriptase/real-time polymerase chain reaction as previously described (Tallant et al., Am. J. Physiol. Heart Circ. Physiol., 2005, 289:1560-1566). All reactions were performed in triplicate and 18S ribosomal RNA, amplified using the TaqMan Ribosomal RNA Control Kit (Applied Biosystems), served as an internal control. The results were quantified as Ct values, where Ct is defined as the threshold cycle of PCR at which amplified product is first detected, and defined as relative gene expression (the ratio of target/control). […] The RNA concentration was quantified by UV spectroscopy and any degradation assessed by ethidium bromide staining intensity of 28S and 18S ribosomal RNA following agarose gel electrophoresis. […] Following PCR, the amplification products were separated by polyacrylamide gel electrophoresis, visualized by autoradiography, and analyzed using the MCID imaging system.
For reverse-transcriptase real-time PCR, RNA was isolated from cells or tissue, using the TRIzol reagent (GIBCO Invitrogen Corp., Carlsbad, Calif.), as directed by the manufacturer. The RNA concentration and integrity were assessed using an Agilent 2100 Bioanalyzer with an RNA 6000 nano LabChip (Agilent Technologies, Palo Alto, Calif.). […]

[2] = system: SK-LU-1 lung cancer cells; format: cell-based, human
Method: Cells were grown to subconfluence in either 24-well cluster plates or 100 mm dishes and made quiescent by treatment for 48 h with serum-depleted growth media, prior to the experiments outlined below to measure cell growth (^3H-thymidine incorporation), cell signaling or apoptosis.
Subsequently, the cell monolayer was washed with cold phosphate-buffered saline (PBS; 50 mM NaPO4, 120 mM NaCl, pH=7.2). The adherent cells were precipitated with cold 10% TCA (4° C. for 30 min) and dissolved in 0.2% SDS in 0.1 N NaOH.
During an additional 4 h, cell monolayers were pulsed with ^3H-thymidine (0.25 μCi/well) and harvested.

[3] = rats, Strawn 1999, cited from earlier work
[4] = system: A549 human lung tumor xenografts; experiment: A549 human lung tumor xenograft in athymic mice, subcutaneous injection; format: in vivo, mouse
Method: For reverse-transcriptase real-time PCR, RNA was isolated from cells or tissue, using the TRIzol reagent (GIBCO Invitrogen Corp., Carlsbad, Calif.), as directed by the manufacturer. The RNA concentration and integrity were assessed using an Agilent 2100 Bioanalyzer with an RNA 6000 nano LabChip (Agilent Technologies, Palo Alto, Calif.). Approximately 1 μg of total RNA was reverse transcribed using avian myeloblastosis virus reverse transcriptase (RT) in a 20 μL mixture containing deoxyribonucleotides, random hexamers and RNase inhibitor in RT buffer. Heating the RT reaction product at 95° C. terminated the reaction. For real-time polymerase chain reaction (PCR), 2 μL of the resultant cDNA was added to TaqMan Universal PCR Master Mix (Applied Biosystems, Foster City, Calif.) with a gene-specific primer/probe set (Applied Biosystems, Foster City, Calif.) and amplification was performed on an ABI 7000 Sequence Detection System. The mixtures were heated at 50° C. for 2 min, at 95° C. for 10 min followed by 40 cycles at 95° C. for 15 sec and 60° C. for 1 min. All reactions were performed in triplicate and 18S ribosomal RNA, amplified using the TaqMan Ribosomal RNA Control Kit (Applied Biosystems), served as an internal control. The results were quantified as Ct values, where Ct is defined as the threshold cycle of PCR at which amplified product is first detected, and expressed as the ratio of target/control (Relative Gene Expression).
Male or female athymic mice (15-20 g, 2-4 weeks of age, Charles River Laboratory, Wilmington, Mass.) were housed in cages with HEPA-filtered air (12-hour light/dark cycle) and ad libitum access to food and autoclaved water. All procedures complied with the policies of the Wake Forest University Animal Care and Use Committee. Mice were inoculated subcutaneously in the lower left flank with approximately 1.9×10^6 A549 lung cancer cells or ZR-75-1 breast cancer cells suspended in 200 μL of cold Matrigel (BD Biosciences, Bedford, Mass.). […] The mice were anesthetized by inhalation with 1.5% isoflurane. […] The minipumps also contained heparin (25 U/mL) to maintain patency of the catheter. On day 28 of the infusion, the animals were anesthetized with halothane and sacrificed by decapitation. Alternatively, the mice received daily subcutaneous injections of Ang-(1-7) in saline or saline alone.
The mice were injected daily, for 5 days, followed by a 2 day rest period, and the injections were continued for 7 cycles. Tumor size was measured every 3 days during the treatment period, using a caliper, and tumor volume was calculated using the formula for a semi-ellipsoid. The tumors continued to grow in the mice treated with saline (FIG. 33). […] It should be noted that a number of the saline control mice were sacrificed after 1 month due to excessive tumor size. Only a single control mouse remained in the study by the 40th day, while the Ang-(1-7)-treated mice thrived.

[5] = 1000 μg/kg/day, radioimmunoassay
[6] = subcutaneous 1000 μg/kg/day, versus saline

In the case of CC[C@H](C)[C@H](NC(=O)[C@H](Cc1ccc(O)cc1)NC(=O)[C@@H](NC(=O)[C@H](CCCNC(=N)N)NC(=O)[C@@H](N)CC(=O)O)C(C)C)C(=O)N[C@@H](Cc1c[nH]cn1)C(=O)N1CCC[C@H]1C(=O)O [Ang-(1-7), Asp-Arg-Val-Tyr-Ile-His-Pro], the “neovascularization, branch points” value ([1]; 10 nM, 48 hour incubation, n=4, control 58.0±3.6 (n=3)) is listed as 29.5±3.6 branch points, the “reduction in branch points” value ([1]; 100 nM, 2-day incubation, FIG. 14) is listed as about 50% and the “IC50 at the AT2 angiotensin receptor” value (AT2 angiotensin receptor; Tallant et al., 1999) is listed as “micromolar range”. For the same compound, the “competition at the AT2 receptor” value (AT2 angiotensin receptor; literature) was “poor competitor”, the “optimal reduction of VEGF mRNA” value (VEGF mRNA) was “greater than 50%” and the “^3H-thymidine incorporation over time of treatment” value ([2]; SK-LU-1, 1% FBS, daily addition of 100 nM) was “progressively reduced”. For the same compound, the “effect on serum-stimulated ^3H-thymidine incorporation” value ([2]; SK-LU-1, peptide at 1 or 100 nM) was “reduced”, the “Ang-(1-7) in the circulation” value ([3]; 24 μg/kg/h intravenous, 12 days, n=6-8, from 0.052±0.005) was 0.185 ± 0.046 nM and the “tolerability: weight, blood pressure, heart rate” value ([3]; 24 μg/kg/hr) was “no change in weight, blood pressure, or heart rate”. The prostacyclin synthase ([4]; 1000 μg/kg/day) was “not altered”, the PGE2 in tumors [4, 5] was “reduced” and the PGI2 in tumors [4, 5] was “increased”. For the same compound, the tumor growth ([4]; subcutaneous 1000 μg/kg/day, 5 days on/2 days rest, 7 cycles) was “significantly reduced”, the COX-2 in tumors [4, 6] was “marked down-regulation” and the “down-regulation in VEGF mRNA in tumor tissue” value [4, 6] was “about 40%”. The “reduction in prostaglandin E2 synthase (PGES) mRNA in tumors” value [4, 6] was “greater than 50%”.
